Test: Henry solubility constant Hcp at 298.15 K (mol/(m3 Pa))
Conditions: reference: Shiu and Mackay (1997)

| Structure (SMILES) | Henry solubility constant Hcp |
| --- | --- |
| Clc1cc(Cl)c(Cl)c(Cl)c1 [1,2,3,5-tetrachlorobenzene] | 0.0063 |
| Clc1cccc(Cl)c1Cl [1,2,3-trichlorobenzene] | 0.0079 |
| Clc1ccc(Cl)cc1 [1,4-dichlorobenzene] | 0.0041 |
| Cc1cccc2c(C)cccc12 [1,5-dimethylnaphthalene] | 0.028 |
| Clc1cccc2ccccc12 [1-chloronaphthalene] | 0.028 |
| CCCCCCCO [1-heptanol] | 0.18 |
| Cc1cccc2ccccc12 [1-methylnaphthalene] | 0.041 |
| CC(=O)c1ccccc1 [1-phenylethanone] | 0.93 |
| c1ccc2c(c1)Cc1ccccc1-2 [2,3-benzindene] | 0.1 |
| Clc1ccc2ccccc2c1 [2-chloronaphthalene] | 0.03 |
| CCCCCC(C)=O [2-heptanone] | 0.058 |
| CC(C)CO [2-methyl-1-propanol] | 0.37 |
| CCCC(C)=O [2-pentanone] | 0.12 |
| c1cc2c3c(cccc3c1)CC2 [acenaphthene] | 0.062 |
| c1ccc2cc3ccccc3cc2c1 [anthracene] | 0.13 |
| c1ccc(-c2ccccc2)cc1 [biphenyl] | 0.032 |
| Brc1ccccc1 [bromobenzene] | 0.004 |
| Clc1ccccc1 [chlorobenzene] | 0.0032 |
| c1ccc2ccccc2c1 [naphthalene] | 0.022 |
| c1ccc2c(c1)ccc1ccccc12 [phenanthrene] | 0.28 |

— Sander's compilation of Henry's law constants (doi:10.1021/je960218u)
